Test results from patent publication EP0596449A2, “Serotonin receptor antagonists for treating myocardial ischemia” (E.R. SQUIBB & SONS, INC., priority 1992, dated 1994).
Marks after values point to notes of the source that are not given here.

Tested on: globally ischemic, isolated rat hearts
Assay: Effect of 5HT, alone or with 5HT2 antagonist, on time to contracture and pre-ischemic function in isolated rat hearts
Details: for Coronary Flow / HR / LVDP: 30 μM 5HT + 3 μM Ketanserin, pre-ischemic; for effect on the pro-ischemic effect of 5HT (time to contracture): 30 µM 5HT plus antagonist, both given 10 minutes before ischemia, Figure 3
Protocol: To determine the effect of serotonin receptor agonists and antagonists, male Sprague-Dawley rats (450-550 g) were prepared as described below. The rats were anesthetized using 100 mg/kg sodium pentobarbital (i.p.). They were intubated and then treated with i.v. heparin (1000 U/kg). While being mechanically ventilated, their hearts were perfused in situ via retrograde cannulation of the aorta. […] A water-filled latex balloon attached to a metal cannula was then inserted into the left ventricle and connected to a Statham pressure transducer for measurement of left ventricular pressure. […] Pre-ischemia or pre-drug function, heart rate and coronary flow (extracorporeal electromagnetic flow probe) were then measured. Left ventricular developed pressure (LVDP) was calculated from the difference between left ventricular peak systolic pressure and EDP. Cardiac temperature was maintained throughout the experiment by submerging the hearts in 37 ° C buffer which was allowed to accumulate in a stoppered, heated chamber. In another series of hearts, the effect of 5HT on the severity of ischemia was determined. […] Vehicle (0.1% DMSO) given 10 minutes before ischemia (n = 5). The hearts were subjected to global ischemia as described above and time to contracture determined. Reperfusion function and LDH release were not determined in this group.

SMILES: O=C(c1ccc(F)cc1)C1CCN(CCn2c(=O)[nH]c3ccccc3c2=O)CC1 [Ketanserin, ketanserin]
- Coronary Flow (Post-Drug): 18 ± 1 mL/min/g
- HR (Post-Drug): 335±17^a beats/min
- LVDP (Post-Drug): 130±2 mmHg
- Coronary Flow (Pre-Drug): 18 ± 2 mL/min/g
- HR (Pre-Drug): 270±16 beats/min
- LVDP (Pre-Drug): 141±4 mmHg
- effect on the pro-ischemic effect of 5HT (time to contracture): abolished the pro-ischemic effect of serotonin
- effect on the pro-ischemic effect of 5HT (time to contracture) (listed as ketanserin): completely abolished this pro-ischemic effect
